Experimental data as given in patent US20230077723A1, “N-SUBSTITUTED-3,4-(FUSED 5-RING)-5-PHENYL-PYRROLIDINE-2-ONE COMPOUNDS AS INHIBITORS OF ISOQC AND/OR QC ENZYME” (Scenic Immunology B.V., priority 2019, published 2023).
Where two headings read alike, the source gives them in different places.

Experiments:
human isoQC (S53-L382) [1] = target: T1, human isoQC (S53-L382) (Homo sapiens, UniProt Q9NXS2); experiment: Assay 1 - isoQC inhibition, fluorescent enzymatic assay (single concentration); assay type: biochemical; details: isoQC inhibition at 250 nM test compound; read-out: isoQc Inh. Assay No. 1
T1 construct: enzymatically active region of human isoQC (S53-L382; see, e.g., Huang et al., 2011); GST-Enterokinase site (N, cleaved yes); made in house; host or cells: E. coli
T1 sequence (Q9NXS2 53-382): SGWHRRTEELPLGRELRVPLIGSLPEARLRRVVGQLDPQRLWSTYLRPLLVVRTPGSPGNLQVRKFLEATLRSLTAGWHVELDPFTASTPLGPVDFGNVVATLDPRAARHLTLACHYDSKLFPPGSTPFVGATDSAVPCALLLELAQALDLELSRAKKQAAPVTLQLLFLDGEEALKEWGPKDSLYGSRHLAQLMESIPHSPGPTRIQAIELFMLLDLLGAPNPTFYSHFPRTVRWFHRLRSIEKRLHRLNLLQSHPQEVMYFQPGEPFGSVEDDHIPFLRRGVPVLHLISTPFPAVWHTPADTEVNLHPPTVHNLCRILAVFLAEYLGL
Protocol: Initially, isoQC inhibitory activity was measured at a single concentration in a fluorescent-based assay (Assay 1 below). In order to establish the inhibitory activity more quantitatively, IC50 values were obtained using a mass spectrometry-based assay where pyroglutamylation by either isoQC or QC was measured (Assays 2 and 4, respectively, below). Alternatively, IC50 values for isoQC or QC were obtained using a fluorescence-based assay (Assays 3 and 5 respectively, below).
(§1) The Golgi luminal, enzymatically active region of human isoQC (S53-L382; see, e.g., Huang et al., 2011) was obtained by expression in E. coli of an N-terminally GST-Enterokinase and C-terminally 6×His tagged construct in the pET41(+) vector and subsequent purification using talon beads and GST beads, enterokinase digestion and further purification with a final formulation in 25 mM Tris pH 8.0/150 mM NaCl/1 mM TCEP. Absence of pyroglutamylating activity in an enzymatic dead variant that was cloned, expressed, and purified in parallel ruled out that the purification strategy isolates any endogenously present pyroglutamylating activity.
Pyroglutamylation was measured by conversion of glutamine-4-amino-7-methylcoumarine (H-Gln-AMC, Bachem) to pyroglutamyl-AMC, which is subsequently a specific substrate for pyroglutamylaminopeptidase (pGAPase, Qiagen), releasing free AMC which can be fluorescently detected. For a typical inhibition assay, 15 μL 20 μM h-Gln-AMC (diluted from a 40 mM stock dissolved in 25 mM HEPES using 50 mM Tris-HCl pH 8.0) was pipetted into a 96-well plate on ice. Next, 7.5 μL 1 μM test compound (diluted from a 10 mM stock dissolved in DMSO using 50 mM Tris-HCl) was added. Finally, 7.5 μL, 3 ng/μL recombinant isoQC enzyme was added and the reaction mixture was incubated for 1 hour at 37° C. A 5 minute incubation at 98° C. was then performed to denature the isoQC enzyme and stop the reaction.
To detect the amount of pyroglutamyl-AMC formed, a 96-well plate was prepared with 25 μL 0.125 U/mL pGAPase enzyme diluted in 50 mM Tris-HCl pH 8.0 containing 10 mM dithiothreitol (DTT). 25 μL of the pyroglutamylation reaction mixture was transferred into the plate containing the pGAPase solutions while on ice. Once done, the plate was moved over to a Spectramax ID3 fluorescent plate-reader to monitor and record the maximum fluorescence at 380 nm excitation/450 nm emission over a period of 20 minutes while keeping the temperature at 37° C.
DMSO concentrations during the assay never exceeded 1% and activities were compared to controls containing only the same amount of DMSO and no test compound. […] Test compounds were reported as active when <40% of background corrected signal was measured as compared to DMSO controls.

human isoQC (S53-L382) [2] = target: T1, human isoQC (S53-L382); experiment: Assay 2 - isoQC potency, mass spectrometry-based enzymatic potency assay; assay type: biochemical; details: mass spectrometry read-out, 7.5 nM isoQC, 10 μM H-Gln-AMC; read-out: isoQc Pot. Assay No. 2
Protocol: as §1
(§2) EC50's of test compounds were determined by incubating 11-point two-fold dilutions of test compound in 20 μL volumes in the presence of 7.5 nM isoQC and 10 μM H-Gln-AMC using 50 mM Tris-HCl pH 8.0 as assay buffer for 2 hours at room temperature before stopping the reaction by the addition of 2 volumes of methanol. Both the substrate and the product of this reaction were read out using an Agilent RapidFire microfluidic solid phase sample extraction system coupled to an AB Sciex API 4000 triple quadrupole mass spectrometer, in negative ion mode, at m/z of 301.9 and 284.9 respectively. The actual readout was defined as P/(S+P), where P is the product signal area and S the substrate signal area. EC50's were calculated by four parameter sigmoidal model fitting.

recombinant human QC = target: T2, recombinant human QC (Homo sapiens, UniProt Q16769); experiment: Assay 4 - QC potency, mass spectrometry-based enzymatic potency assay; assay type: biochemical; details: mass spectrometry read-out; read-out: QC Pot. Assay No. 4
T2 construct: His6 (N); purchased R&D Systems
T2 sequence (Q16769 29-361): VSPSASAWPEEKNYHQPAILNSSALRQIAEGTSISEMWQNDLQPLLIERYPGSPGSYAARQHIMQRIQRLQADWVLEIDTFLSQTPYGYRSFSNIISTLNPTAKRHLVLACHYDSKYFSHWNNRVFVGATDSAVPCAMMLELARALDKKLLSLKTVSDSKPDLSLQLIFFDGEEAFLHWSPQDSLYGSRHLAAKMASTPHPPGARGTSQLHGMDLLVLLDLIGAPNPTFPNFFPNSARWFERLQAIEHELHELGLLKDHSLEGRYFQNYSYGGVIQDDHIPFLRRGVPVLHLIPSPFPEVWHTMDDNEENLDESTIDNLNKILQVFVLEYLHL
Protocol: as §2
EC50's of test compounds were determined in the same way as described in Assay 2 above, except that N-terminally His6-tagged recombinant human QC (R&D Systems) was used instead of isoQC.

[3] = system: pyroglutamylated CD47 (pE-CD47) in KBM7 cells; experiment: Assay 6 - cell-based potency assay (pE-CD47 CC2C6 staining vs total CD47); set-up: species or system human; details: Homo sapiens, KBM-7, 72 h, CC2C6 signal
Protocol: Cells were spun for 4 minutes at 1500 rpm and washed once with PBS/0.5% BSA. Cells were spun down again and the supernatant was removed and incubated in 100 uL antibody staining solution (PBS/0.5% BSA/0.1 μg/mL DAPI (4′,6-diamidino-2-phenylindole, ThermoFisher Scientific) and a mixture of 1:500 FITC-conjugated anti-human CD47 clone 2D3, which recognizes total CD47 irrespective of its pyroglutamylation state, and 1:500 Alexa647-conjugated anti-human CD47 clone CC2C6, which specifically detects pyroglutamylated CD47) for 2 hours at 4° C. Next, the cells were spun down and washed twice with 2×150 μL PBS/0.5% BSA to remove unbound antibody. Cells were again spun down and taken up in 300 μL FACS buffer before analysis on a Celesta FACS machine (BD Biosciences).
KBM7 cells (Kotecki et al., 1999) were infected with lentivirus produced by transfecting pSCNC-LentiCRISPR-QPCTL or pSCNC-LentiCRISPR-CD47 into HEK-293T cells according to standard protocols. After 24 hours incubation, cells were selected with puromycin (Invivogen, 1 μg/mL) for 48 hours. Cells were stained for total CD47 and pE-CD47 and QPCTL k.o. cells were sorted out as negative for pE-CD47, and CD47 k.o. cells as negative for total CD47, using a FACSAria III and FACS Diva software (BD Biosciences).
In order to test compounds for their effect on pyroglutamylation in live cells, 25000 KBM7 cells per well were seeded in a 96-well U-bottom plate in 150 μl IMDM/10% FCS/1% Pen/Strep medium and a 10-point 2-fold dilution range of test compounds. After 72 hours incubation at 37° C., 5% CO2, cells were stained for total CD47 and pE-CD47 and analyzed on a BD Celesta using FACS Diva software (BD Biosciences). Cells gated for DAPI negativity were recorded and the median fluorescence intensity (MFI) of each sample was transformed to linearly scale between the MFI's of wildtype and CD47 knockout cells (in case of the 2D3 antibody) and the wildtype and QPCTL knockout cells (in case of the CC2C6 antibody). IC50's were calculated by 3 parameter logistic regression of the CC2C6 signal vs. compound concentration, where the top of the sigmoidal curve was fixed at 1, using R and the drc package (http://www.r-project.org, https://cran.r-project.org/web/packages/drc/index.html).

[4] = read-out: Cell Pot. Assay No. 6
[5] = Table 2, read-out: Cell Potency Assay 6 (Comparison Data)

SMILES | inhibition at 0.25 µM (human isoQC (S53-L382) [1]) | IC50 [3, 4] | also measured
CCCOc1ccc(C2c3c(nn(C4CCC4)c3C)C(=O)N2c2ccc3[nH]cnc3c2)cc1 (centres unmarked) [FRPPO-033] | > 40% | 1 to 5 µM | IC50 (human isoQC (S53-L382) [2]): 0.1 to 5 µM; IC50 (recombinant human QC): 0.1 to 5 µM
CCCOc1ccc(C2c3c(nn(CC(C)(C)F)c3C)C(=O)N2c2ccc3[nH]cnc3c2)cc1 (centres unmarked) [FRPPO-038] | > 40% | 1 to 5 µM | –
CCCOc1ccc(C2c3c(nn(C)c3C)C(=O)N2c2ccc3[nH]cnc3c2)c(Cl)c1 (centres unmarked) [FRPPO-004] | > 40% | < 1 µM | IC50 (human isoQC (S53-L382) [2]): < 0.025 µM; IC50 (recombinant human QC): 0.025 to 0.1 µM
Cc1c2c(nn1C)C(=O)N(c1ccc3[nH]cnc3c1)C2c1ccc(N2CCCCCC2=O)cc1 (centres unmarked) [FRPPO-011] | > 40% | ≥ 50 µM | IC50 (human isoQC (S53-L382) [2]): 0.025 to 0.1 µM; IC50 (recombinant human QC): 0.1 to 5 µM
Cc1c2c(nn1C)C(=O)N(c1ccc3[nH]cnc3c1)C2c1ccc(Oc2cnn(C)c2)cc1 (centres unmarked) [FRPPO-025] | > 40% | 5 to 50 µM | IC50 (human isoQC (S53-L382) [2]): < 0.025 µM; IC50 (recombinant human QC): 0.025 to 0.1 µM
CCCOc1ccc(C2c3c(C)nn(C4CCC4)c3C(=O)N2c2ccc3[nH]cnc3c2)cc1 (centres unmarked) [FRPPO-022] | ≤ 40% | 1 to 5 µM | –
CCCOc1ccc(C2c3c(nn(CC(F)(F)F)c3C)C(=O)N2c2ccc3[nH]cnc3c2)cc1 (centres unmarked) [FRPPO-037] | > 40% | 1 to 5 µM | –
Cc1c2c(nn1C)C(=O)N(c1ccc3[nH]cnc3c1)C2c1ccc(N2CCOC[C@H]2C)cc1F (some centres unmarked) [FRPPO-113B] | – | < 1 µM | –
Cc1c2c(nn1C)C(=O)N(c1ccc3[nH]cnc3c1)C2c1ccc(N2CCC(F)C2)cc1F (centres unmarked) [FRPPO-073] | – | 1 to 5 µM | –
CCCOc1ccc(C2c3c(nn(C)c3C)C(=O)N2c2cc(C)c3nnn(C)c3c2)cc1 (racemic) [REF-002, reference compound] | – | – | IC50 [3, 5]: > 6.25 µM
CCCOc1ccc(C2c3c(nn(C)c3C)C(=O)N2c2ccc3nnn(C)c3c2)cc1 (racemic) [REF-001, reference compound] | – | – | IC50 [3, 5]: > 6.25 µM
Cc1c2c(nn1C)C(=O)N(c1ccc3[nH]cnc3c1)C2c1ccc(N2CCNC(C)C2)cc1F (centres unmarked) [FRPPO-082] | – | 5 to 50 µM | –
CC(C)c1c2c(nn1C)C(=O)N(c1ccc3[nH]cnc3c1)C2c1ccc(N2CCC(F)(F)C2)cc1F (centres unmarked) [FRPPO-152A] | – | < 1 µM | –
Cc1c2c(nn1C)C(c1ccc(Br)cc1F)N(c1ccc3[nH]cnc3c1)C2=O (centres unmarked) [FRPPO-047] | – | 5 to 50 µM | –
CCCOc1ccc(C2c3c(C)nn(CC(F)(F)F)c3C(=O)N2c2ccc3[nH]cnc3c2)cc1 (centres unmarked) [FRPPO-023] | ≤ 40% | 5 to 50 µM | –
Cc1c2c(nn1C)C(=O)N(c1ccn3ccnc3c1)C2c1ccc(N2CCOC(C)C2)cc1F (centres unmarked) [FRPPO-197] | – | < 1 µM | –

SMILES | inhibition at 0.25 µM (human isoQC (S53-L382) [1]) | IC50 [3, 4] | also measured
O=C1c2scnc2C(c2ccc(Cl)cc2F)N1c1ccc2[nH]cnc2c1 (centres unmarked) [FRPPO-057] | – | 5 to 50 µM | –
Cc1c2c(nn1C)C(=O)N(c1ccc3[nH]cnc3c1)C2c1ccc(-n2cc(C(F)(F)F)cn2)cc1F (centres unmarked) [FRPPO-150A] | – | < 1 µM | –
O=C1c2scnc2C(c2ccc(N3CCC(F)(F)C3)cc2F)N1c1ccc2[nH]cnc2c1 (centres unmarked) [FRPPO-054] | – | 1 to 5 µM | –
CCCOc1ccc(C2c3c(nn(C4CC4)c3C)C(=O)N2c2ccc3[nH]cnc3c2)cc1 (centres unmarked) [FRPPO-036] | > 40% | < 1 µM | –
CCCOc1ccc(C2c3c(nn(C)c3C)C(=O)N2c2cc(C)c3nnc(C)n3c2)cc1 (racemic) [REF-004, reference compound] | – | – | IC50 [3, 5]: ≥ 50 µM
Cn1nc(C2CC2)c2c1C(=O)N(c1ccc3[nH]cnc3c1)C2c1ccc(N2CCC(F)(F)C2)cc1 (centres unmarked) [FRPPO-168] | – | 1 to 5 µM | –
Cc1c2c(nn1C)C(=O)N(c1ccc3[nH]cnc3c1)C2c1ccc(N2CC(F)C2)cc1F (centres unmarked) [FRPPO-072] | – | < 1 µM | –
Cn1nc(C(F)(F)F)c2c1C(c1ccc(N3CCC(F)(F)C3)cc1F)N(c1ccc3[nH]cnc3c1)C2=O (centres unmarked) [FRPPO-050] | – | 1 to 5 µM | –
CCCOc1ccc(C2c3c(nn(C)c3C)C(=O)N2c2ccc3[nH]cnc3c2)cc1 (racemic) [FRPPO-001] | – | < 1 µM | IC50 [3, 5]: < 1 µM
Cc1c2c(nn1C)C(=O)N(c1ccc3[nH]cnc3c1)C2c1ccc(N2CC3CCC(C2)O3)cc1F (centres unmarked) [FRPPO-096] | – | < 1 µM | –
Cc1[nH]nc2c1C(c1ccc(-c3csc(C(F)(F)F)n3)cc1F)N(c1ccc3[nH]cnc3c1)C2=O (centres unmarked) [FRPPO-147] | – | < 1 µM | –
CCCOc1ccc(C2c3c(C)nn(C(C)C)c3C(=O)N2c2ccc3[nH]cnc3c2)cc1 (centres unmarked) [FRPPO-021] | ≤ 40% | 5 to 50 µM | –
Cc1c2c(nn1C)C(=O)N(c1ccc3[nH]cnc3c1)C2c1ccc(N2CCOC[C@@H]2C)cc1F (some centres unmarked) [FRPPO-113A] | – | < 1 µM | –
Cc1c2c(nn1C)C(=O)N(c1ccc3[nH]cnc3c1)C2c1ccc(N2CC3CC2CO3)cc1F (centres unmarked) [FRPPO-081] | – | 1 to 5 µM | –
Cc1c2c(nn1C)C(=O)N(c1ccc3[nH]cnc3c1)C2c1ccc(N2CCC(F)(F)C2)c(F)c1F (centres unmarked) [FRPPO-154] | – | < 1 µM | –
